SMILES strings stand for the structures. Some results are limits rather than exact numbers.

The melting point is the temperature of the solid-liquid transition.

For `CCCn1ncc(C#N)c1N`, the melting point is 85 to 90 °C.

`Cc1ccc([PH](=O)c2ccc(C)cc2)cc1`: the melting point was 93.7 °C.

The compound `O=C(c1ccc2c(=O)nc(-c3ccccn3)sc2c1)N1CCCC1` registered a melting point of 174 °C.

Turning to `N#Cc1ccc(O)c(NC(=O)C(=O)O)c1`, the melting point is over 300 °C.

Take `COC(=O)C1Cc2ccc([N+](=O)[O-])cc2CN1` (stereo unspecified): the melting point lay in the range of 133 to 135 °C.

For `O=C1COc2cc(SCc3ccc(O)cc3)ccc2N1`, the melting point lay within 207 to 209 °C.

`O=C(C=Cc1cccc(Cl)c1)C=Cc1cccc(Cl)c1` had a melting point of 120 to 121 °C.

In turn, `CCOc1ccc(C(F)(F)F)cc1-c1cccn2nc(Nc3ccc4c(c3)CCN(CCS(C)(=O)=O)CC4)nc12` registered a melting point of 105 to 109 °C.

As to `O=COCCCN1C(=O)c2ccccc2C1=O`, the melting point fell in the range of 68 to 70 °C.

The compound `Nc1c(-c2ccccc2)oc2c(CO)cccc2c1=O` had a melting point of 192 °C.

`COc1ccc(C2(c3ccc(OC)cc3)Nc3ccc(-c4ccc5[nH]cnc5c4)cc3N2)cc1` gave a melting point of 267 to 270 °C.

For the compound `CC(C)(C)OC(=O)CCc1cc(C#N)nc(-c2nc(=O)c3ccccc3s2)c1`, the melting point was 190 to 191 °C.

The compound `CCOC(=O)N1CCc2nc3ccccc3c(Oc3ccccc3)c2CC1` had a melting point of 150 °C.

Take `COCC(=O)NNC(=O)N1Cc2ccccc2Oc2ccc(Cl)cc21`: the melting point lay within 167 to 169 °C.

Compound `CCCCc1nc2c(OC)ccc(CCN(C)C)c2[nH]1` displayed a melting point of 116 to 122 °C.

`CNc1c(NCCNCc2ccc(CN3CCCCC3)o2)c(=O)c1=O` yielded a melting point of 145 to 147 °C.

As to `O=C(O)C1=Cc2cc(Cl)ccc2OC1C(F)(F)F` (stereo unspecified), the melting point is 181 to 184 °C.

As for `CN1CCN(C(=O)c2ccc3cc(-c4csc(N(C)S(=O)(=O)c5ccccc5)n4)c(=O)[nH]c3c2)CC1`, the melting point lay within 242 to 247 °C.

`CC(C)n1cc(-c2nc(C(N)=O)c(N)nc2-c2cccc(F)c2)ccc1=O` showed a melting point of 259 °C.

On to `COc1cc(C(=O)Nc2c(Cl)cc3c(Br)n[nH]c3c2C(=O)NC(C)C)n(-c2ncccc2Cl)n1`, for which the melting point was in the range of 217 to 218 °C.

Compound `Cc1ccc(N2C(=O)C(O)=C(C(=O)c3ccc(C(C)C)cc3)C2c2ccc(OC(C)C)cc2)nn1` (stereo unspecified) showed a melting point of 280 to 281 °C.

`CCN1CCCC(NC2c3ccccc3Oc3ccccc32)C1` (stereo unspecified) displayed a melting point of 47.5 to 48.5 °C.

On to `CC(C)(C)OC(=O)N(CCCCC(=O)c1cc2c3c(c1)CCN3C(=O)CC2)CCc1ccccc1O`, for which the melting point was in the range of 154 to 155 °C.

`CC(C)(C)Cc1c(CC(C)(C)C(=O)O)n(Cc2ccc(Cl)cc2)c2ccc(OCc3ccc4occc4n3)cc12` yielded a melting point of 172 to 173 °C.

Turning to `Cc1cccc(N(c2ccccc2)c2ccc3c(c2)C(CCCO)(CCCO)c2cc(N(c4ccccc4)c4cccc(C)c4)ccc2-3)c1`, the melting point is 216 to 217 °C.

As to `O=C(Nc1ccccc1)N1CCC(C2Oc3ccccc3Cn3cccc32)CC1` (stereo unspecified), the melting point was 167 to 170 °C.

`COc1ccc2cc(C(C)CC(C)=O)cc(F)c2c1` (stereo unspecified) gave a melting point of 38 to 39 °C.

`Cc1nnc(-c2ccnc(Nc3cccc(C(F)(F)F)c3)c2)o1`: the melting point fell in the range of 217 to 218 °C.

Turning to `COC(=O)CNc1cccc2c1C(=O)N(C1CCC(=O)NC1=O)C2=O` (stereo unspecified), the melting point lay in the range of 210 to 212 °C.

Compound `OCC1OC(n2cnc3c(NCC(c4ccccc4)c4ccc(Cl)cc4)ncnc32)C(O)C1O` (stereo unspecified) came in with a melting point of 89 to 95 °C.

With `N#Cc1cccc(CNc2cc(C(N)=O)c([N+](=O)[O-])cc2[N+](=O)[O-])c1`, the melting point was in the range of 228 to 230 °C.

Consider `CC1(C)CC(OC(=O)c2cccc(C(=O)OC3CC(C)(C)N(OC4CCCCC4)C(C)(C)C3)c2)CC(C)(C)N1OC1CCCCC1`, for which the melting point lay within 135 to 141 °C.

For `CC(C)c1nc2ccccn2c(=O)c1-c1ccc(NC2CCN(C(=O)OC(C)(C)C)C2)cc1` (stereo unspecified), the melting point was in the range of 232 to 236 °C.

Compound `O=[N+]([O-])c1ccc(Oc2cccc3cccnc23)c(Cl)c1` returned a melting point of 113 to 115 °C.

As for `CC(Cc1c[nH]c2ccccc12)(NC(=O)OC1CCCCC1Cl)C(=O)NCCc1ccccc1` (stereo unspecified), the melting point lay within 69 to 78 °C.

For `CCC(Oc1cc(Cl)cc(Cl)c1)C(=O)NCc1ccccc1C` (stereo unspecified), the melting point lay within 135 to 137 °C.

Regarding `Cc1nn(-c2ccc(Cl)cc2)c(C)c1C(=O)N[C@H](C)[C@](O)(Cn1cncn1)c1ccc(F)cc1F`, the melting point was in the range of 144 to 145 °C.

`CCC(OCc1ccc(-c2ccc(Cl)cc2)cc1)(C(=O)OC)c1ccccc1` (stereo unspecified): the melting point lay within 68 to 72 °C.

With `Cc1nc(N)c(O)c(=O)[nH]1`, the melting point is over 300 °C.

With `CCC1=NN(CCO[Si](C)(C)C(C)(C)C)C(=O)C1Oc1cc(C#N)cc(C#N)c1` (stereo unspecified), the melting point was found to be 204 °C.

`Cn1cc(C2=C(c3cn(CCCN)c4ccccc34)C(=O)NC2=O)c2ccccc21` displayed a melting point of 195 to 197 °C.

For the compound `O=C(CNc1ccc2cn[nH]c2c1)N1CCC(Cc2ccccc2)CC1`, the melting point lay in the range of 179 to 182 °C.

Compound `CC(C)(C)NC(=O)c1ccc2[nH]ccc2c1` had a melting point of 176 °C.

Take `Cc1nc(C(=O)N(C)C)c2n1-c1ccc(Cl)cc1C(c1ccccc1)=NC2`: the melting point was 173 to 175 °C.

Take `CCCn1c(=O)cc(N)n(-c2ccccc2C)c1=O`: the melting point was in the range of 226 to 228 °C.

The compound `O=C(O)Cc1cc([N+](=O)[O-])ccc1Sc1ccccc1` had a melting point of 138 to 140 °C.

The compound `CCCCCC(=O)NC(=O)C(c1ccccc1)c1ccccc1` registered a melting point of 87 °C.

For `CN(C)C=C1C(=O)CCc2c1cnn2C`, the melting point lay within 94 to 100 °C.

With `COc1ccc(Br)c(Cl)c1C(=O)O`, the melting point lay in the range of 186 to 188 °C.

On to `O=C1CC2Cc3ccccc3C2N1` (stereo unspecified), for which the melting point lay within 150 to 153 °C.

Turning to `CCOC(=O)C1(S(=O)(=O)c2ccc(OC)cc2)CCN(Cc2ccc(-c3cccs3)cc2)CC1`, the melting point stood at 130 °C.

Take `Cc1ccc(N)c(C(=O)CS(C)=O)c1` (stereo unspecified): the melting point lay in the range of 145 to 147 °C.

On to `CCOC(=O)C(=O)N(c1ccccc1)c1ccc(OC)cc1OC`, for which the melting point was in the range of 142 to 144 °C.

Compound `O=C(O)CCCCN1CCC(Cc2ccccc2)CC1` came in with a melting point of 148 to 151 °C.

In turn, `CC(C)C(O)(CCc1ccc(OCc2ccccc2)cc1)CC(=O)O` (stereo unspecified) gave a melting point of 97 to 98 °C.

Compound `C=CCn1c(S)nc2c(cnn2C)c1=O` had a melting point of 171 to 174 °C.

For the compound `COc1cccc(C23CC(=O)NC(=O)C2=CCC(C)C3)c1` (stereo unspecified), the melting point is 218 to 221 °C.

`CS(=O)(=O)Oc1ccccc1CC(=O)O` registered a melting point of 110 °C.

In the case of `CCCCCCCCc1nc2c(N)nc3ccccc3c2n1CCOCc1ccccc1`, the melting point fell in the range of 110 to 111 °C.

`COc1ccc(C2=NO[C@]3(CCOC3)C2)cc1OC1CCCC1` had a melting point of 110 °C.

Consider `CC(C)c1ncc(CCCOc2nn(C)cc2CC(=O)O)c(Oc2ccc(Cl)cc2Cl)n1`, for which the melting point is 107 to 108 °C.

For `CN(C)S(=O)(=O)c1cccc2c1Sc1ccc(O)cc1N2`, the melting point lay within 208 to 210 °C.

`CCOC(=O)c1cnn2c(O)cc(-c3ccc(Cl)cc3)nc12` had a melting point of 190 to 192 °C.

`CCOC(=O)c1ccc(N=C(Nc2ccc(C(=O)OCC)cc2)c2ccc(C(C)(C)C)cc2)cc1` showed a melting point of 212 to 219 °C.

`CC(C)Oc1ccccc1Oc1ccc(NC(=O)N2CCc3ccccc3CC2)cn1`: the melting point was 149 to 152 °C.

`CN(c1ccc(N)cc1)c1nc(=O)c2cccnc2s1` gave a melting point of 250 °C.

Turning to `Nc1cc2c(cc1Br)C(=O)OC2`, the melting point was 235 to 241 °C.

Take `CN(Cc1cc(C(F)(F)F)cc(C(F)(F)F)c1)C(=O)c1c(-c2ccc(F)cc2)c2nccnc2c(=O)n1C`: the melting point was in the range of 220 to 222 °C.

Turning to `CCc1nn2c(-c3cccc(OC)c3)ccnc2c1C#N`, the melting point lay in the range of 118 to 119 °C.

As for `CCc1nc(S(=O)(=O)Nc2c(Cl)cccc2Cl)nn1-c1ccccc1`, the melting point was in the range of 185 to 187 °C.

With `CCOC(=O)c1cn(Cc2ccc(OCc3nc(-c4ccccc4)oc3C)cc2)nc1OCc1ccc(OCc2nc(-c3ccccc3)oc2C)cc1`, the melting point lay in the range of 118 to 119 °C.

In the case of `NC(=O)N(CCCl)C(c1ccccc1)P(=O)(O)O` (stereo unspecified), the melting point was 195 °C.

In turn, `COc1cc2c(Nc3ccc(Sc4nccn4C)c(Cl)c3)c(C#N)cnc2cc1N1CCC(N2CCOCC2)CC1` returned a melting point of 219 to 221 °C.

Consider `CCCc1[nH]c2cc(C(N)=O)ccc2c1C(=O)C1CCC1`, for which the melting point fell in the range of 253 to 255 °C.

As for `COc1ccc(C=C2CCc3cc(OCCn4ccnc4)ccc3C2=O)cc1`, the melting point was in the range of 132 to 133 °C.

`C=CCN1C(=O)N(c2ccc([N+](=O)[O-])c(C(F)(F)F)c2)C(=O)C1(C)C`: the melting point stood at 105 °C.

Turning to `N#Cc1ccc2oc(-c3cccc(O)c3)cc2c1`, the melting point lay in the range of 222 to 224 °C.

Consider `CS(=O)(=O)Nc1ccc(C(=O)c2ccccc2)cc1`, for which the melting point was in the range of 145 to 147 °C.

Compound `CCN1C(=O)C(C)(C)C(=O)N(C)c2cc(CN(CCn3ccc4oc(C)c(C)c4c3=O)Cc3cc(C)nn3C)ccc21` gave a melting point of 148 to 150 °C.

Compound `CC(C)(C)OC(=O)c1ncn2c1C(C)(C)N(C(=O)N1CCCC1)c1cc(F)ccc1-2` showed a melting point of 168 to 170 °C.

In turn, `CCNC(=NC#N)NC` showed a melting point of 120 to 124 °C.

For `CC(C)(C)C(F)(F)c1ccc(C[C@@H](NC(=O)c2cccc3c2C=CCCC3)[C@@H](O)c2cccc(Cl)c2)cc1` (racemic), the melting point is 119 to 120 °C.

`COC(=O)c1cc(C(=O)OC)n(-c2ccc([N+](=O)[O-])cc2C(=O)c2ccccc2)n1` returned a melting point of 150 to 152 °C.

`Nc1c(Cl)cc(S(=O)(=O)C(F)(F)F)cc1[N+](=O)[O-]` returned a melting point of 138 to 139 °C.

In turn, `Cc1c(Cc2ccccc2)c(=O)n(Cc2ccc(F)cc2)c2cc(OCc3nnn[nH]3)cc(OCc3nnn[nH]3)c12` had a melting point of 126 to 132 °C.

Take `COC(=O)Cc1nc2cc(OC)c(OC)cc2c(-c2ccc(OC)c(OC)c2)c1C(=O)OC`: the melting point is 170 to 171 °C.

The values are drawn from a melting point compilation (Tetko et al.; mined from patent text by program, amines drawn as free bases though some values may be those of a salt).
